Source: patent US6649565B1, “Selective herbicides on the basis of a substituted phenylsulfonylaminocarbonyltriazolinone and safeners” (Bayer Aktiengesellschaft, priority 1999, dated 2003)

Tests used:
[1] = test system: barley of the cultivar Coronar; assay: Post-emergence test/greenhouse, damage to crop plant barley; type: in vivo; details: greenhouse, after approx. 18 days
Text: (§1) The active compounds in question were used in the form of customary formulations. The sodium salt of the compound of the formula (I) was applied as 70 WG or 70 WP, mefenpyr-diethyl was applied as 100 EC and fenchlorazole-ethyl and cloquintocetmexyl were applied as a laboratory formulation of the active compound produced by ourselves. The active compounds and, if appropriate, the safeners were used to prepare an aqueous spray liquor comprising 0.1% of the additive Renex-36.
(§2) The active compound preparation is used to spray test plants which were grown in 10×10 cm pots (growth medium: soil or vermiculte), such that the particular amounts of active compound desired are applied per unit area. The concentration of the spray liquor is chosen such that the particular amounts of active compound desired are applied in […].
(§3) After approximately 18 days the degree of damage to the crop plants was rated in % damage in comparison with the development of the untreated control.
(§4) 0%=no damage (like untreated control)
(§5) 100%=total destruction/damage
(§6) Active compounds, application rates, test plants and results are shown in the tables below, the terms used in the tables having the following meaning:
barley=barley of the cultivar Coronar
(§7) a.i.=active ingredient=active compound/safener

[2] = test system: wheat of the cultivar Orestis; assay: Post-emergence test/greenhouse, damage to crop plant wheat; type: in vivo; details: greenhouse, after approx. 18 days
Text: as §1, §2, §3, §4, §5, §6
wheat=wheat of the cultivar Orestis
as §7

CCCOc1nn(C(=O)[N-]S(=O)(=O)c2ccccc2C(=O)OC)c(=O)n1C.[Na+]
Damage barley ([1]; Table A5, 15 g of a.i./ha): 50%
Damage barley ([1]; Table A5, 30 g of a.i./ha): 70%
Damage barley ([1]; Table A5, 60 g of a.i./ha): 70%
Damage barley ([1]; Table A6, 8 g of a.i./ha): 50%
Damage barley ([1]; Table A6, 15 g of a.i./ha): 50%
Damage barley ([1]; Table A6, 30 g of a.i./ha): 60%
Damage barley ([1]; Table A6, 60 g of a.i./ha): 60%
Damage barley ([1]; Table A9, 15 g of a.i./ha): 50%
Damage barley ([1]; Table A9, 30 g of a.i./ha): 70%
Damage barley ([1]; Table A9, 60 g of a.i./ha): 70%
Damage wheat ([2]; Table A1, 90 g of a.i./ha): 20%
Damage wheat ([2]; Table A1, 180 g of a.i./ha): 30%
Damage wheat ([2]; Table A2, 60 g of a.i./ha): 20%
Damage wheat ([2]; Table A2, 125 g of a.i./ha): 30%
Damage wheat ([2]; Table A2, 250 g of a.i./ha): 50%
Damage wheat ([2]; Table A3, 30 g of a.i./ha): 5%
Damage wheat ([2]; Table A3, 60 g of a.i./ha): 10%
Damage wheat ([2]; Table A3, 125 g of a.i./ha): 50%
Damage wheat ([2]; Table A4, 60 g of a.i./ha): 30%
Damage wheat ([2]; Table A4, 125 g of a.i./ha): 40%
Damage wheat ([2]; Table A7, 60 g of a.i./ha): 20%
Damage wheat ([2]; Table A7, 125 g of a.i./ha): 30%
Damage wheat ([2]; Table A7, 250 g of a.i./ha): 50%
Damage wheat ([2]; Table A8, 30 g of a.i./ha): 5%
Damage wheat ([2]; Table A8, 60 g of a.i./ha): 10%
Damage wheat ([2]; Table A8, 125 g of a.i./ha): 50%
